Columns and labels:
human TRPV3 = molecular target: T1, human TRPV3 (Homo sapiens, UniProt Q8NET8); test: In vitro antagonism of recombinant human TRPV3 activation (FLIPR Tetra calcium assay, 2-APB as agonist); type: cell-based; conditions: HEK293 cells stably expressing human TRPV3; 2-APB 80 μM; range class; read-out: IC50 (reported range)
T1 construct: expressed in transfected cells
T1 sequence (Q8NET8 1-790): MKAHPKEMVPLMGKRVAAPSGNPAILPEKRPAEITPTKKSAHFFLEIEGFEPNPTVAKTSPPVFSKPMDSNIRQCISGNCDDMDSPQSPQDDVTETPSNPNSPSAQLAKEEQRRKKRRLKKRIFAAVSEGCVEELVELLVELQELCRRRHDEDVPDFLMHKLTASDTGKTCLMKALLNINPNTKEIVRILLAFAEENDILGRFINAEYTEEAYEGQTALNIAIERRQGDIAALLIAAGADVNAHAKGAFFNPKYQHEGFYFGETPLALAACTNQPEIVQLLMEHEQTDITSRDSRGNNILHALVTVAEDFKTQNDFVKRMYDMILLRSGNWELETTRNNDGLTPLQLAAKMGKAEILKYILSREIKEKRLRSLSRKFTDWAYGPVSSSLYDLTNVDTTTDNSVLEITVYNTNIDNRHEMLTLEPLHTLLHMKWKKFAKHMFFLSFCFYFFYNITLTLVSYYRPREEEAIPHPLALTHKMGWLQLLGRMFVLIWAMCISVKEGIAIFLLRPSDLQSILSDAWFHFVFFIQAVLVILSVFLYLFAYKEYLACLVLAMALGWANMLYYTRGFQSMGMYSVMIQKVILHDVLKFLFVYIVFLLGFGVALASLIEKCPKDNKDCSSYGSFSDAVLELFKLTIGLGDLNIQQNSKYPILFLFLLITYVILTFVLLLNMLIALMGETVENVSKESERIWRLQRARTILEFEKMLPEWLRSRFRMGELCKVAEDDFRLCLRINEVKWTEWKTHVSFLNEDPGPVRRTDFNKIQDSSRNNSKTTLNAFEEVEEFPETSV
Method in brief: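 Readout is FLIPR fluorescence, max minus min as percent of uninhibited 2-APB response, giving IC50 (usually mean of ≥2 runs). Stable human TRPV3 HEK293 cells, Calcium-4 dye-loaded, got test compound then, three minutes later, 80 μM 2-APB (EC80); run length 10 min.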

[1] = In vitro human microsomal stability assay; type: in vitro ADME; conditions: human, 0.5 h, 0.5 μM, pH 7.4
Method in brief: (§1)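 Metabolic stability was measured in liver microsomes from Sprague-Dawley rat or from human. Incubations ran at 37 °C with NADPH as cofactor, and NADPH was also added to the time-zero samples.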

[2] = In vitro rat microsomal stability assay; type: in vitro ADME, rat (Sprague-Dawley); conditions: Sprague-Dawley, rat, 0.5 h, 0.5 μM, pH 7.4
Method in brief: as §1

Row | IC50 (human TRPV3) [µM] | HUMAN MICROSOMAL STABILITY (% REMAINING AFTER 30 MINUTES) [1] [%] | RAT MICROSOMAL STABILITY (% REMAINING AFTER 30 MINUTES) [2] [%] | SMILES
1 | 0.05 to 0.5 | >85 | 42 | N[C@@H]1CCC[C@H]1[C@@H](O)C1(c2cccc(C(F)(F)F)c2)CCC1 [Example 227, (R)-[(1R,2R)-2-aminocyclopentyl]{1-[3-(trifluoromethyl)phenyl]-cyclobutyl}methanol]
2 | 1.1 to 5 | 70 | 25 | CN[C@@H]1CCC[C@H]1[C@@H](O)C1(c2ccc(Cl)c(Cl)c2)CCC1 [Example 228, (R)-[1-(3,4-dichlorophenyl)cyclobutyl][(1R,2R)-2-(methylamino)-cyclopentyl]methanol]
3 | 1.1 to 5 | >85 | 80 | N[C@H]1CCC[C@H]1[C@@H](O)C1(c2ccc(OC(F)(F)F)cc2)CCC1 [Example 229, (R)-[(1R,2S)-2-aminocyclopentyl]{1-[4-(trifluoromethoxy)phenyl]-cyclobutyl}methanol]
4 | 0.501 to 1 | 4.0 | 17 | O[C@H](c1ccccn1)C1(c2ccc(Cl)c(Cl)c2)CC1 [Example 231, (S)-[1-(3,4-dichlorophenyl)cyclopropyl](pyridin-2-yl)methanol]
5 | 5.1 to 20 | 19 | 23 | OC(c1ccccn1)C1(c2cccc(C(F)(F)F)n2)CCC1 (stereo not drawn) [Example 234, pyridin-2-yl{1-[6-(trifluoromethyl)pyridin-2-yl]cyclobutyl}methanol]
6 | 1.1 to 5 | 20 | <0.01 | OC(c1ccccn1)C1(c2cccc(OC(F)(F)F)c2)CC2(C1)OCCO2 (stereo not drawn) [Example 235, pyridin-2-yl{2-[3-(trifluoromethoxy)phenyl]-5,8-dioxaspiro[3.4]oct-2-yl}-methanol]
7 | 1.1 to 5 | 51 | 50 | O=C1CC(c2cccc(OC(F)(F)F)c2)(C(O)c2ccccn2)C1 (stereo not drawn) [Example 237, 3-[hydroxy(pyridin-2-yl)methyl]-3-[3-(trifluoromethoxy)phenyl]-cyclobutanone]
8 | 1.1 to 5 | 7.1 | 21 | O[C@H](c1ccccn1)C1(c2cccc(C(F)(F)F)n2)CCC1 [Example 238, (S)-pyridin-2-yl{1-[6-(trifluoromethyl)pyridin-2-yl]cyclobutyl}methanol]
9 | 0.501 to 1 | 50 | 38 | O[C@H](c1ccccn1)C1(c2ccnc(C(F)(F)F)c2)CCC1 [Example 240, (S)-pyridin-2-yl{1-[2-(trifluoromethyl)pyridin-4-yl]cyclobutyl}methanol]
10 | 5.1 to 20 | 45 | <0.01 | OC(c1ccccn1)C1(c2cccc(C(F)(F)F)c2)CC2(C1)OCCO2 (stereo not drawn) [Example 242, pyridin-2-yl{2-[3-(trifluoromethyl)phenyl]-5,8-dioxaspiro[3.4]oct-2-yl}-methanol]
11 | 1.1 to 5 | 80 | 77 | CC1(O)CC(c2cccc(C(F)(F)F)c2)(C(O)c2ccccn2)C1 [Example 244, trans-3-[(S)-hydroxy(pyridin-2-yl)methyl]-1-methyl-3-[3-(trifluoromethyl)-phenyl]cyclobutanol]
12 | 1.1 to 5 | 57 | 72 | O=C1CC(c2cccc(C(F)(F)F)c2)(C(O)c2ccccn2)C1 (stereo not drawn) [Example 245, 3-[hydroxy(pyridin-2-yl)methyl]-3-[3-(trifluoromethyl)phenyl]cyclobutanone]
13 | 1.1 to 5 | 62 | >85 | OC1CC(c2ccc(Cl)c(Cl)c2)(C(O)c2ccccn2)C1 [Example 247, cis-3-(3,4-dichlorophenyl)-3-[(R)-hydroxy(pyridin-2-yl)methyl]cyclobutanol]
14 | 1.1 to 5 | 70 | 29 | ON=C1CC(c2ccc(OC(F)(F)F)cc2)([C@H](O)c2ccccn2)C1 (stereo partly drawn) [Example 248, (S)-{3-(hydroxyimino)-1-[4-(trifluoromethoxy)phenyl]cyclobutyl}(pyridin-2-yl)methanol]
15 | 1.1 to 5 | 61 | 3.2 | CON=C1CC(c2ccc(OC(F)(F)F)cc2)([C@H](O)c2ccccn2)C1 (stereo partly drawn) [Example 249, (S)-{3-(methoxyimino)-1-[4-(trifluoromethoxy)phenyl]cyclobutyl}(pyridin-2-yl)methanol]
16 | 5.1 to 20 | 70 | 70 | C[C@]1(O)C[C@@](c2ccc(OC(F)(F)F)cc2)([C@@H](O)c2ccccn2)C1 [Example 250, cis-3-[(R)-hydroxy(pyridin-2-yl)methyl]-1-methyl-3-[4-(trifluoromethoxy)-phenyl]cyclobutanol]
17 | 1.1 to 5 | 0.21 | 0.017 | Cc1ccccc1CC1(C(O)c2ccccn2)CCC1 (stereo not drawn) [Example 253, [1-(2-methylbenzyl)cyclobutyl](pyridin-2-yl)methanol]
18 | 1.1 to 5 | 1.1 | 0.57 | OC(c1ccccn1)C1(Cc2cccc(F)c2)CCC1 (stereo not drawn) [Example 254, [1-(3-fluorobenzyl)cyclobutyl](pyridin-2-yl)methanol]
19 | 5.1 to 20 | 54 | <0.01 | OC(c1ccccn1)C1(c2ccc(F)c(Cl)c2)CC2(C1)OCCO2 (stereo not drawn) [Example 255, [2-(3-chloro-4-fluorophenyl)-5,8-dioxaspiro[3.4]oct-2-yl](pyridin-2-yl)-methanol]
20 | 5.1 to 20 | 70 | 53 | O=C1CC(c2ccc(F)c(Cl)c2)(C(O)c2ccccn2)C1 (stereo not drawn) [Example 258, 3-(3-chloro-4-fluorophenyl)-3-[hydroxy(pyridin-2-yl)methyl]cyclobutanone]
21 | 5.1 to 20 | 12 | <0.01 | OC(c1ccccn1)C1(C2=CCC(F)(F)CC2)CCC1 (stereo not drawn) [Example 260, [1-(4,4-difluorocyclohex-1-en-1-yl)cyclobutyl](pyridin-2-yl)methanol]
22 | 1.1 to 5 | 0.01 | <0.01 | OC(c1ccccn1)C1(C2=CCCC(C(F)(F)F)C2)CCC1 (stereo not drawn) [Example 261, pyridin-2-yl{1-[5-(trifluoromethyl)cyclohex-1-en-1-yl]cyclobutyl}methanol]
23 | 5.1 to 20 | 43 | 0.059 | CC(C)(C)OC(=O)N1CCC(C2(C(O)c3ccccn3)CCC2)C1 (stereo not drawn) [Example 265, tert-butyl 3-{1-[hydroxy(pyridin-2-yl)methyl]cyclobutyl}pyrrolidine-1-carboxylate]
24 | 1.1 to 5 | 46 | 0.14 | OC(c1ccccn1)C1(c2nc3ccccc3s2)CCC1 (stereo not drawn) [Example 266, [1-(1,3-benzothiazol-2-yl)cyclobutyl](pyridin-2-yl)methanol]
25 | 1.1 to 5 | 64 | 10 | CN(C)N=C1CC(c2ccc(OC(F)(F)F)cc2)([C@H](O)c2ccccn2)C1 (stereo partly drawn) [Example 267, (S)-{3-(dimethylhydrazinylidene)-1-[4-(trifluoromethoxy)phenyl]-cyclobutyl}(pyridin-2-yl)methanol]
26 | 1.1 to 5 | 62 | 8.6 | OC(c1ccccn1)C1(c2nc3ccccc3o2)CCC1 (stereo not drawn) [Example 271, [1-(1,3-benzoxazol-2-yl)cyclobutyl](pyridin-2-yl)methanol]
